Measured values taken from PubChem BioAssay AID1963447 (Molecular Pharmacology Branch, DTP, NCI, 2024).

Tested on: 885512-296-R-J2-PDC complex spheroid growth, % test/control
Experiment: Anticancer human tumor 885512-296-R-J2-PDC patient-derived breast carcinoma cell line growth inhibition [Asc]
Settings: for IC50: curve of first compound; for viability, T/C: stronger effect = lower value
Experimental: Multicellular complex tumor spheroid response to apoptosis pathway targeting inhibitors Alrizomadlin, Pelcitoclax, and Dasminapant in combination with a variety of drugs and investigational agents in selected tumor cell lines
The MDM2 inhibitor alrizomadlin, the Bcl-2/Bcl-xL inhibitor pelcitoclax, and the IAPs inhibitor dasminapant were evaluated both individually and in combination with standard of care and investigational anticancer small molecules within a complex spheroid model of solid tumors. . Complex spheroids include a stromal component modeled by human endothelial cells (HUVEC) and fibroblasts modeled by human mesenchymal stem cells (MSCs). The concentration ranges selected for each drug and investigational agent were based upon clinically achievable concentrations if the clinical Cmax of the agent was known.
Compounds. The drugs and investigational agents: alrizomadlin (APG-115; NSC831270), pelcitoclax (APG-1252; NSC835773), dasminapant (APG-1387;NSC834197), TAK-243 (NSC785004), copanlisib (NSC809693), olaparib (NSC753686), talazoparib (NSC767125), cobimetinib (NSC 768068), eltanexor (KPT-8602, NSC 794443), abemaciclib (NSC 768073), sotorasib (NSC818433), adagrasib (NSC 831453), MRTX-1133 (NSC 836407), Iadademestat (ORY1001, NSC 806812), and RMC-4630 (NSC839698), were obtained from the NCI Developmental Therapeutics Program Chemical Repository. The FDA-approved anticancer drug set is available from the Developmental Therapeutics Program at https://dtp.cancer.gov/organization/dscb/obtaining/available plates.htm. […] The stock solutions were prepared in dimethyl sulfoxide (DMSO, Sigma-Aldrich, St. Louis, MO, cat. D2650) at 800-fold the tested concentration and stored at -70 degrees C prior to their use. All drugs and investigational agents were tested over a range starting from a high concentration at or near the clinical Cmax and decreasing in half-log increments. If the clinical Cmax for an agent had not been determined, the highest concentration tested was 10 microM.
The patient-derived cancer (PDC) cell lines include five colon adenocarcinomas: 186277-243-T-J2-PDC, 616215-338-R-J1-PDC, 439559-082-T-J2-PDC, 463943-066-T-J2-PDC, and 519858-162-T-J1-PDC; three pancreatic carcinomas: 323965-272-R-J2-PDC, 521955-158-R6-J3-PDC, and 521955-158-R2-J5-PDC; two uterine sarcomas: 327498-152-R-J2-PDC and 993429-296-R-J1-PDC; two rhabdomyosarcomas: 755483-174-R-J1-PDC and 772245-204-R-J1-PDC; two soft tissue sarcomas: 126254-015-R-J1-PDC and 494315-158-R-J1-PDC; two malignant fibrous histiocytomas: 317291-083-R-J1-PDC and 596521-263-R-J1-PDC; two breast carcinomas: 171881-019-R-J1-PDC and 885512-296-R-J2-PDC; and one ovarian carcinoma: 6556581-035-R-J-PDC were obtained from the NCI PDMR, (https://pdmr.cancer.gov). The established cell lines HSSY-2 synovial sarcoma (RRID:CVCL 8719), SYO-1 synovial sarcoma (RRID:CVCL_7146), MPNST malignant peripheral neural sheath tumor were obtained from the Sloan Kettering Institute. The following established cell lines were purchased from the American Type Culture Collection (ATCC, Manassas, VA), Sor the received from the NCI repository:, PANC-1 pancreatic carcinoma (CRL-1469, RRID:CVCL_0480), OVCAR-5 ovarian carcinoma (RRID:CVCL_1628), OVCAR-8 ovarian carcinoma (RRID:CVCL_1629), , MCF-7 breast carcinoma (CRL-12584, RRID:CVCL_0031), MDA-MB-231 breast carcinoma (CRL-12532, RRID:CVCL_0062), NCI-H1876 small cell lung carcinoma (CRL-5902, RRID:CVCL_1503), NCI-H510A small cell lung carcinoma (HTB-184, RRID:CVCL_1565), NCI-H1417 (CRL-5869, RRID:CVCL_1469), and NCI-H196 small cell lung carcinoma (CRL-5823, RRID:CVCL_1509). Dr. Peter Houghton (Greehey Children's Cancer Research Institute, University of Texas Health Science Center, San Antonio, TX) provided Rh-18 rhabdomyosarcoma (RRID:CVCL_1659). Pooled donor human umbilical vein endothelial cells (HUVEC, Lonza, cat. CC-2519) and human mesenchymal stem cells (hMSC, Lonza, cat. PT-2501) were purchased from Lonza (Walkersville, MD).
Cell Culture. […]

[1] = second compound 0.03 µM, first compound 0.00316 µM
[2] = second compound 0.03 µM, first compound 0.01 µM
[3] = second compound 0.03 µM, first compound 0.0316 µM
[4] = second compound 0.03 µM, first compound 0.1 µM
[5] = second compound 0.0949 µM, first compound 0.00316 µM
[6] = second compound 0.0949 µM, first compound 0.01 µM
[7] = second compound 0.0949 µM, first compound 0.0316 µM
[8] = second compound 0.0949 µM, first compound 0.1 µM
[9] = second compound 0.3 µM, first compound 0.00316 µM
[10] = second compound 0.3 µM, first compound 0.01 µM
[11] = second compound 0.3 µM, first compound 0.0316 µM
[12] = second compound 0.3 µM, first compound 0.1 µM
[13] = second compound 0.949 µM, first compound 0.00316 µM
[14] = second compound 0.949 µM, first compound 0.01 µM
[15] = second compound 0.949 µM, first compound 0.0316 µM
[16] = second compound 0.949 µM, first compound 0.1 µM
[17] = second compound 3 µM, first compound 0.00316 µM
[18] = second compound 3 µM, first compound 0.01 µM
[19] = second compound 3 µM, first compound 0.0316 µM
[20] = second compound 3 µM, first compound 0.1 µM
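Note: spheroids exposed to compounds for seven days.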
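Throughout, for viability, T/C: 100% = DMSO vehicle control wells.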

Molecule CCN1CCN(Cc2ccc(Nc3ncc(F)c(-c4cc(F)c5nc(C)n(C(C)C)c5c4)n3)nc2)CC1 + CCN1C(C(=O)NC23CCC(C(=O)O)(CC2)CC3)C(c2cccc(Cl)c2F)C2(C(=O)Nc3cc(Cl)ccc32)C12CCCCC2 has an IC50 (second compound 0.03 µM) of over 1000 nM, an IC50 (second compound 0.0949 µM) of over 1000 nM and an IC50 (second compound 0.3 µM) of over 1000 nM. It also gave an IC50 (second compound 0.949 µM) of over 1000 nM, an IC50 (second compound 3 µM) of under 3.16 nM and a viability, T/C [1] of 98.5%. It also gave a viability, T/C [2] of 101%, a viability, T/C [3] of 81.3% and a viability, T/C [4] of 76.4%. For the same molecule, the viability, T/C (second compound 0.03 µM, first compound 0.316 µM) was 79.1%, the viability, T/C (second compound 0.03 µM, first compound 1 µM) was 62% and the viability, T/C [5] was 96.1%. The viability, T/C [6] was 91.8%, the viability, T/C [7] was 80.5% and the viability, T/C [8] was 64.1%. It also gave a viability, T/C (second compound 0.0949 µM, first compound 0.316 µM) of 80.8%, a viability, T/C (second compound 0.0949 µM, first compound 1 µM) of 59.9% and a viability, T/C [9] of 74.2%. The viability, T/C [10] was 90.3%, the viability, T/C [11] was 75.2% and the viability, T/C [12] was 69%. It also gave a viability, T/C (second compound 0.3 µM, first compound 0.316 µM) of 66%, a viability, T/C (second compound 0.3 µM, first compound 1 µM) of 56.3% and a viability, T/C [13] of 69.7%. For the same molecule, the viability, T/C [14] was 58.7%, the viability, T/C [15] was 60.3% and the viability, T/C [16] was 50.5%. It also gave a viability, T/C (second compound 0.949 µM, first compound 0.316 µM) of 50.4%, a viability, T/C (second compound 0.949 µM, first compound 1 µM) of 54.9% and a viability, T/C [17] of 41.1%. It also gave a viability, T/C [18] of 35.3%, a viability, T/C [19] of 40.8% and a viability, T/C [20] of 38.7%. It also gave a viability, T/C (second compound 3 µM, first compound 0.316 µM) of 37.3% and a viability, T/C (second compound 3 µM, first compound 1 µM) of 39.4%.
NC(=O)C(=Cn1cnc(-c2cc(C(F)(F)F)cc(C(F)(F)F)c2)n1)c1cncnc1 + CCN1C(C(=O)NC23CCC(C(=O)O)(CC2)CC3)C(c2cccc(Cl)c2F)C2(C(=O)Nc3cc(Cl)ccc32)C12CCCCC2 showed an IC50 (second compound 0.03 µM) of 45.1 nM, an IC50 (second compound 0.0949 µM) of 44 nM and an IC50 (second compound 0.3 µM) of 42.9 nM. It also gave an IC50 (second compound 0.949 µM) of 39.4 nM, an IC50 (second compound 3 µM) of 0.949 nM and a viability, T/C (second compound 0.03 µM, first compound 0.000949 µM) of 108%. It also gave a viability, T/C (second compound 0.03 µM, first compound 0.003 µM) of 95.1%, a viability, T/C (second compound 0.03 µM, first compound 0.00949 µM) of 111% and a viability, T/C (second compound 0.03 µM, first compound 0.03 µM) of 72.4%. It also gave a viability, T/C (second compound 0.03 µM, first compound 0.0949 µM) of 9.51%, a viability, T/C (second compound 0.03 µM, first compound 0.3 µM) of 1.11% and a viability, T/C (second compound 0.0949 µM, first compound 0.000949 µM) of 98.6%. The viability, T/C (second compound 0.0949 µM, first compound 0.003 µM) was 93.7%, the viability, T/C (second compound 0.0949 µM, first compound 0.00949 µM) was 113% and the viability, T/C (second compound 0.0949 µM, first compound 0.03 µM) was 72.2%. For the same molecule, the viability, T/C (second compound 0.0949 µM, first compound 0.0949 µM) was 6.79%, the viability, T/C (second compound 0.0949 µM, first compound 0.3 µM) was 0.89% and the viability, T/C (second compound 0.3 µM, first compound 0.000949 µM) was 74.4%. For the same molecule, the viability, T/C (second compound 0.3 µM, first compound 0.003 µM) was 91%, the viability, T/C (second compound 0.3 µM, first compound 0.00949 µM) was 92.2% and the viability, T/C (second compound 0.3 µM, first compound 0.03 µM) was 69.3%. The viability, T/C (second compound 0.3 µM, first compound 0.0949 µM) was 6.76%, the viability, T/C (second compound 0.3 µM, first compound 0.3 µM) was 0.83% and the viability, T/C (second compound 0.949 µM, first compound 0.000949 µM) was 70.3%. It also gave a viability, T/C (second compound 0.949 µM, first compound 0.003 µM) of 72.2%, a viability, T/C (second compound 0.949 µM, first compound 0.00949 µM) of 80.9% and a viability, T/C (second compound 0.949 µM, first compound 0.03 µM) of 63.4%. For the same molecule, the viability, T/C (second compound 0.949 µM, first compound 0.0949 µM) was 6.15%, the viability, T/C (second compound 0.949 µM, first compound 0.3 µM) was 1.27% and the viability, T/C (second compound 3 µM, first compound 0.000949 µM) was 42.7%. The viability, T/C (second compound 3 µM, first compound 0.003 µM) was 48.9%, the viability, T/C (second compound 3 µM, first compound 0.00949 µM) was 48.3% and the viability, T/C (second compound 3 µM, first compound 0.03 µM) was 55%. For the same molecule, the viability, T/C (second compound 3 µM, first compound 0.0949 µM) was 4.94% and the viability, T/C (second compound 3 µM, first compound 0.3 µM) was 0.76%.
With NC1CCC(NC2CC2c2ccccc2)CC1 (stereo not given) + CCN1C(C(=O)NC23CCC(C(=O)O)(CC2)CC3)C(c2cccc(Cl)c2F)C2(C(=O)Nc3cc(Cl)ccc32)C12CCCCC2 the IC50 (second compound 0.03 µM) was over 100 nM, the IC50 (second compound 0.0949 µM) was over 100 nM and the IC50 (second compound 0.3 µM) was over 100 nM. The IC50 (second compound 0.949 µM) was over 100 nM, the IC50 (second compound 3 µM) was over 100 nM and the viability, T/C (second compound 0.03 µM, first compound 0.000316 µM) was 116%. It also gave a viability, T/C (second compound 0.03 µM, first compound 0.001 µM) of 129%, a viability, T/C [1] of 120% and a viability, T/C [2] of 123%. It also gave a viability, T/C [3] of 125%, a viability, T/C [4] of 118% and a viability, T/C (second compound 0.0949 µM, first compound 0.000316 µM) of 117%. The viability, T/C (second compound 0.0949 µM, first compound 0.001 µM) was 123%, the viability, T/C [5] was 127% and the viability, T/C [6] was 114%. It also gave a viability, T/C [7] of 124%, a viability, T/C [8] of 119% and a viability, T/C (second compound 0.3 µM, first compound 0.000316 µM) of 108%. The viability, T/C (second compound 0.3 µM, first compound 0.001 µM) was 116%, the viability, T/C [9] was 118% and the viability, T/C [10] was 108%. For the same molecule, the viability, T/C [11] was 118%, the viability, T/C [12] was 118% and the viability, T/C (second compound 0.949 µM, first compound 0.000316 µM) was 99.8%. For the same molecule, the viability, T/C (second compound 0.949 µM, first compound 0.001 µM) was 102%, the viability, T/C [13] was 104% and the viability, T/C [14] was 99.7%. For the same molecule, the viability, T/C [15] was 103%, the viability, T/C [16] was 104% and the viability, T/C (second compound 3 µM, first compound 0.000316 µM) was 66.5%. It also gave a viability, T/C (second compound 3 µM, first compound 0.001 µM) of 62.2%, a viability, T/C [17] of 62.2% and a viability, T/C [18] of 70.7%. It also gave a viability, T/C [19] of 71.4% and a viability, T/C [20] of 74.8%.
